Where “and” joins values, the source holds several entries; their conditions need not be identical. Identical values can stand only once. Inconclusive results are not listed.
Tested on: BDF1 mice, Friend leukemia sc, tumor weight T/C
Test: NCI In Vivo Anticancer Drug Screen. Data for tumor model Friend Virus Leukemia (Solid) (subcutaneous) in B6D2F1 (BDF1) mice
Conditions: endpoint: mean tumor weight, higher = larger tumour
Method: The antitumor activity of compounds was measured in mice bearing transplantable tumors. Survival or tumor size were measured and the results are expressed as the measurement made in the treated group (T) divided by the measurement made in the vehicle treated control group (C). The tumor model used in this assay is Friend Virus Leukemia (Solid) (subcutaneous) in B6D2F1 (BDF1) mice

[1] = dose: 0.5 mg/kg/injection, schedule: Q01DX011 (ip), vehicle: carboxymethylcellulose (CMC)
[2] = dose: 10.0 mg/kg/injection, schedule: Q01DX011 (ip), vehicle: carboxymethylcellulose (CMC)
[3] = dose: 15.0 mg/kg/injection, schedule: Q01DX011 (ip), vehicle: carboxymethylcellulose (CMC)
[4] = dose: 4.4 mg/kg/injection, schedule: Q01DX011 (ip), vehicle: carboxymethylcellulose (CMC)
[5] = dose: 27.0 mg/kg/injection, schedule: Q01DX011 (ip), vehicle: carboxymethylcellulose (CMC)
[6] = dose: 1.0 mg/kg/injection, schedule: Q01DX011 (sc), vehicle: steriod suspending solution
[7] = dose: 3.0 mg/kg/injection, schedule: Q01DX011 (sc), vehicle: steriod suspending solution
[8] = dose: 200.0 mg/kg/injection, schedule: Q01DX011 (sc), vehicle: steriod suspending solution
[9] = dose: 250.0 mg/kg/injection, schedule: Q01DX011 (ip), vehicle: carboxymethylcellulose (CMC)
[10] = dose: 37.5 mg/kg/injection, schedule: Q01DX011 (ip), vehicle: carboxymethylcellulose (CMC)
[11] = dose: 75.0 mg/kg/injection, schedule: Q01DX011 (ip), vehicle: carboxymethylcellulose (CMC)
[12] = dose: 121.0 mg/kg/injection, schedule: Q01DX011 (ip), vehicle: carboxymethylcellulose (CMC)
[13] = dose: 7.0 mg/kg/injection, schedule: Q01DX011 (ip), vehicle: carboxymethylcellulose (CMC)
[14] = dose: 1.0 mg/kg/injection, schedule: Q01DX011 (ip), vehicle: carboxymethylcellulose (CMC)

## O=C(Nc1ccc(C2=NCCN2)cc1)c1ccc(C(=O)Nc2ccc(C3=NCCN3)cc2)c(Cl)c1
dose: 0.31 mg/kg/injection, schedule: Q01DX011 (ip), vehicle: carboxymethylcellulose (CMC)
  T/C: 66 % of control
[1]
  T/C: 93 % of control
dose: 0.63 mg/kg/injection, schedule: Q01DX011 (ip), vehicle: carboxymethylcellulose (CMC)
  T/C: 50 % of control
dose: 1.25 mg/kg/injection, schedule: Q01DX011 (ip), vehicle: carboxymethylcellulose (CMC)
  T/C: 40 % of control and 46 % of control
dose: 2.5 mg/kg/injection, schedule: Q01DX011 (ip), vehicle: carboxymethylcellulose (CMC)
  T/C: 39 % of control
[2]
  T/C: 93 % of control
[3]
  T/C: 21 % of control [middle of 4 runs]
dose: 20.0 mg/kg/injection, schedule: Q01DX011 (ip), vehicle: carboxymethylcellulose (CMC)
  T/C: 6 % of control

## C[n+]1c(-c2ccccc2)c2cc(N)ccc2c2ccccc21
[4]
  T/C: 103 % of control
dose: 6.6 mg/kg/injection, schedule: Q01DX011 (ip), vehicle: carboxymethylcellulose (CMC)
  T/C: 117 % of control
[2]
  T/C: 53 % of control
[3]
  T/C: 89 % of control

## O=[N+]([O-])c1ccc(O)c([N+](=O)[O-])c1
dose: 3.87 mg/kg/injection, schedule: Q01DX011 (ip), vehicle: carboxymethylcellulose (CMC)
  T/C: 101 % of control
dose: 6.75 mg/kg/injection, schedule: Q01DX011 (ip), vehicle: carboxymethylcellulose (CMC)
  T/C: 102 % of control
dose: 13.5 mg/kg/injection, schedule: Q01DX011 (ip), vehicle: carboxymethylcellulose (CMC)
  T/C: 103 % of control
[5]
  T/C: 123 % of control

## CCC(c1ccc(O)cc1)C(CC)c1ccc(OC)cc1 (configuration not stated)
dose: 0.5 mg/kg/injection, schedule: Q01DX011 (sc), vehicle: steriod suspending solution
  T/C: 86 % of control
[6]
  T/C: 73 % of control
[7]
  T/C: 60 % of control and 72 % of control
dose: 6.0 mg/kg/injection, schedule: Q01DX011 (sc), vehicle: steriod suspending solution
  T/C: 61 % of control and 73 % of control
dose: 12.0 mg/kg/injection, schedule: Q01DX011 (sc), vehicle: steriod suspending solution
  T/C: 43 % of control
dose: 25.0 mg/kg/injection, schedule: Q01DX011 (sc), vehicle: steriod suspending solution
  T/C: 54 % of control and 48 % of control
dose: 50.0 mg/kg/injection, schedule: Q01DX011 (sc), vehicle: steriod suspending solution
  T/C: 38 % of control
dose: 100.0 mg/kg/injection, schedule: Q01DX011 (sc), vehicle: steriod suspending solution
  T/C: 43 % of control
[8]
  T/C: 36 % of control

## c1ccc2c(c1)ccc1cc3c(ccc4ccccc43)cc12
[3]
  T/C: 90 % of control
dose: 31.0 mg/kg/injection, schedule: Q01DX011 (ip), vehicle: carboxymethylcellulose (CMC)
  T/C: 86 % of control
dose: 62.5 mg/kg/injection, schedule: Q01DX011 (ip), vehicle: carboxymethylcellulose (CMC)
  T/C: 39 % of control
dose: 63.0 mg/kg/injection, schedule: Q01DX011 (ip), vehicle: carboxymethylcellulose (CMC)
  T/C: 93 % of control
[9]
  T/C: 52 % of control
dose: 500.0 mg/kg/injection, schedule: Q01DX011 (ip), vehicle: carboxymethylcellulose (CMC)
  T/C: 29 % of control

## CS(=O)(=O)OCCCCCCCCCOS(C)(=O)=O
dose: 18.75 mg/kg/injection, schedule: Q01DX011 (ip), vehicle: carboxymethylcellulose (CMC)
  T/C: 81 % of control
[10]
  T/C: 51 % of control
[11]
  T/C: 49 % of control

## CCC(=O)O[C@H]1CC[C@H]2[C@@H]3CCC4=CC(=O)CC[C@]4(C)[C@H]3CC[C@]12C
[6]
  T/C: 84 % of control
dose: 5.0 mg/kg/injection, schedule: Q01DX011 (sc), vehicle: steriod suspending solution
  T/C: 104 % of control
dose: 10.0 mg/kg/injection, schedule: Q01DX011 (sc), vehicle: steriod suspending solution
  T/C: 96 % of control
dose: 20.0 mg/kg/injection, schedule: Q01DX011 (sc), vehicle: steriod suspending solution
  T/C: 81 % of control
dose: 40.0 mg/kg/injection, schedule: Q01DX011 (sc), vehicle: steriod suspending solution
  T/C: 89 % of control
dose: 80.0 mg/kg/injection, schedule: Q01DX011 (sc), vehicle: steriod suspending solution
  T/C: 76 % of control
dose: 125.0 mg/kg/injection, schedule: Q01DX011 (sc), vehicle: steriod suspending solution
  T/C: 199 % of control
[8]
  T/C: 158 % of control
dose: 250.0 mg/kg/injection, schedule: Q01DX011 (sc), vehicle: steriod suspending solution
  T/C: 207 % of control
dose: 300.0 mg/kg/injection, schedule: Q01DX011 (sc), vehicle: steriod suspending solution
  T/C: 94 % of control
dose: 400.0 mg/kg/injection, schedule: Q01DX011 (sc), vehicle: steriod suspending solution
  T/C: 185 % of control and 201 % of control
dose: 500.0 mg/kg/injection, schedule: Q01DX011 (sc), vehicle: steriod suspending solution
  T/C: 171 % of control and 191 % of control and 257 % of control

## NC(Cc1cccs1)C(=O)O (configuration not stated)
[9]
  T/C: 112 % of control

## Cc1ncc(CO)c(C)c1O
dose: 22.75 mg/kg/injection, schedule: Q01DX011 (ip), vehicle: carboxymethylcellulose (CMC)
  T/C: 54 % of control
dose: 45.5 mg/kg/injection, schedule: Q01DX011 (ip), vehicle: carboxymethylcellulose (CMC)
  T/C: 111 % of control
[12]
  T/C: 84 % of control and 98 % of control
dose: 126.0 mg/kg/injection, schedule: Q01DX011 (ip), vehicle: carboxymethylcellulose (CMC)
  T/C: 112 % of control

## CS(=O)(=O)OCCCCOS(C)(=O)=O
dose: 6.62 mg/kg/injection, schedule: Q01DX011 (ip), vehicle: carboxymethylcellulose (CMC)
  T/C: 107 % of control
[13]
  T/C: 65 % of control
dose: 13.25 mg/kg/injection, schedule: Q01DX011 (ip), vehicle: carboxymethylcellulose (CMC)
  T/C: 68 % of control
dose: 14.0 mg/kg/injection, schedule: Q01DX011 (ip), vehicle: carboxymethylcellulose (CMC)
  T/C: 91 % of control
dose: 26.5 mg/kg/injection, schedule: Q01DX011 (ip), vehicle: carboxymethylcellulose (CMC)
  T/C: 110 % of control
[5]
  T/C: 55 % of control
dose: 53.0 mg/kg/injection, schedule: Q01DX011 (ip), vehicle: carboxymethylcellulose (CMC)
  T/C: 66 % of control

## CC/C(=C(\CC)c1ccc(OC)cc1)c1ccc(O)cc1
[7]
  T/C: 69 % of control
dose: 7.0 mg/kg/injection, schedule: Q01DX011 (sc), vehicle: steriod suspending solution
  T/C: 101 % of control
dose: 15.0 mg/kg/injection, schedule: Q01DX011 (sc), vehicle: steriod suspending solution
  T/C: 79 % of control
dose: 30.0 mg/kg/injection, schedule: Q01DX011 (sc), vehicle: steriod suspending solution
  T/C: 55 % of control
dose: 240.0 mg/kg/injection, schedule: Q01DX011 (sc), vehicle: steriod suspending solution
  T/C: 65 % of control
dose: 480.0 mg/kg/injection, schedule: Q01DX011 (sc), vehicle: steriod suspending solution
  T/C: 63 % of control
dose: 960.0 mg/kg/injection, schedule: Q01DX011 (sc), vehicle: steriod suspending solution
  T/C: 62 % of control
dose: 1920.0 mg/kg/injection, schedule: Q01DX011 (sc), vehicle: steriod suspending solution
  T/C: 63 % of control

## CCn1cnc2c(=S)nc(N)[nH]c21
[1]
  T/C: 76 % of control
[14]
  T/C: 89 % of control
dose: 3.0 mg/kg/injection, schedule: Q01DX011 (ip), vehicle: carboxymethylcellulose (CMC)
  T/C: 24 % of control and 49 % of control
[13]
  T/C: 11 % of control
[3]
  T/C: 4 % of control and 18 % of control

## CCCn1cnc2c(=S)nc(N)[nH]c21
dose: 0.67 mg/kg/injection, schedule: Q01DX011 (ip), vehicle: carboxymethylcellulose (CMC)
  T/C: 67 % of control
[14]
  T/C: 67 % of control
dose: 1.5 mg/kg/injection, schedule: Q01DX011 (ip), vehicle: carboxymethylcellulose (CMC)
  T/C: 28 % of control
dose: 2.9 mg/kg/injection, schedule: Q01DX011 (ip), vehicle: carboxymethylcellulose (CMC)
  T/C: 32 % of control
[4]
  T/C: 32 % of control

## CC(C)(c1ccccc1)c1ccc(O)cc1
[10]
  T/C: 94 % of control
[11]
  T/C: 107 % of control
dose: 150.0 mg/kg/injection, schedule: Q01DX011 (ip), vehicle: carboxymethylcellulose (CMC)
  T/C: 87 % of control

## NNC(=O)c1ccncc1
[3]
  T/C: 80 % of control
dose: 30.0 mg/kg/injection, schedule: Q01DX011 (ip), vehicle: carboxymethylcellulose (CMC)
  T/C: 75 % of control
[12]
  T/C: 55 % of control
